{"source": "patent US20170071840A1", "about": "“POLYPHENOL/FLAVONOID COMPOSITIONS AND METHODS OF FORMULATING ORAL HYGIENIC PRODUCTS” (VIZURI HEALTH SCIENCES LLC, priority 2015, published 2017)", "key": {"[1]": {"test": "Solubility in PS80 via the thermal processing method", "type": "physicochemical", "method": "Apigenin/Polysorbate 80 (PS80) formulations can be made as follows: • Apigenin powder and PS80 are mixed in the ratio from about 5 to 10 wt. % of apigenin to 95 to 90 wt. % PS80.\nAll solubility tests were conducted with 20 ml of PS80 contained within 80 ml Pyrex glass beakers."}, "[2]": {"test": "Saliva levels of apigenin in chronic 1% apigenin toothpaste users (Example 12)", "type": "in vivo, human", "protocol": "Two subjects who have used PeroxiCare® with apigenin at a 1% concentration on a chronic basis provided saliva samples at:\nSaliva was collected at each time point in 50 ml Falcon tubes and immediately transferred to a freezer. All samples were transported to Tufts University within 24 hours of collection. Apigenin in saliva was quantified using high performance liquid chromatograph (HPLC) with electrochemical detection (ECD). Apigenin in 1 ml saliva was extracted using 3 ml acetonitrile. After 2 min of rigorous vortexing, the mixture was spun at 2,000 rpm for 15 min at 4° C. Supernatant was dried under N2 gas, reconstituted with mobile phase A, and analyzed for apigenin with HPLC-ECD. The limit of quantification (LOQ) for apigenin and EGCG in this assay is 15 and 25 ng/ml saliva, respectively."}, "[3]": {"test": "Heat solubilization in Kolliphor RH-40 / Polysorbate 80", "type": "physicochemical", "conditions": "curcumin as co-solubilizer", "quoted_text": "Heat Solubilization of 10% curcumin and 4% apigenin in Kolliphor RH-40 (formerly Cremophor)\nHeat Solubilization of 10% Curcumin and 4% Apigenin in Polysorbate 80"}, "[4]": {"test": "Solubility in water", "type": "physicochemical", "conditions": "20° C."}, "[5]": {"test": "Solubilization in Listerine mouth rinse", "type": "physicochemical", "protocol": "100 Grams of the Listerine® Resveratrol Containing Mouth Rinse Formulation was Prepared as Follows: • 1. 98.4 grams of the Listerine® caramel colored mouth rinse was added to a 300 ml Pyrex glass beaker. The pH of the Listerine® caramel colored mouth rinse was initially determined via pH indicator strips to be decidedly acidic at approximately 4.5. • 2. 1.2 grams of Resveratrol powder was added to the solution of Step 1. • 3. About 0.2 grams of fine NaOH crystals were added to the mixture from Step 2 and thoroughly mixed. A uniformly caramel colored blend resulted with a measured pH of ˜10. […] The pH of the mixture from Step 3 was adjusted to a pH 6.5 by the addition of about 0.2 grams of citric acid crystals. A transparent solution resulted with a resveratrol concentration of 1.2 mg/ml.\n• 1. 98.6 grams of the Listerine® caramel colored mouthrinse was added to a 300 ml Pyrex glass beaker. The pH of the Listerine® caramel colored mouthrinse was initially determined via pH indicator strips to be decidedly acidic at approximately 4.5. • 2. 1.2 grams of Luteolin powder was added to the solution of Step 1. • 3. About 0.2 grams of fine NaOH crystals were added to the mixture from Step 2 and thoroughly mixed. A uniformly caramel colored blend resulted with a measured pH of ˜10. […] The pH of the mixture from Step 2 was adjusted to a pH 8 by the addition of about 0.2 grams of citric acid crystals. […]"}, "[6]": {"test": "pH for stable aqueous microemulsion", "type": "physicochemical", "conditions": "nonionic surfactants Polysorbate 80 and Cremophor/Kolliphor RH-40", "from_the_text": "In one embodiment, a flavonoid/polyphenol microemulsion can be made as follows: • The mixing of a flavonoid/polyphenol with an alkali metal component (e.g., alkali metal hydroxide(s) and/or alkaline metal salt(s)) to form an alkali metal flavonoid/polyphenol salt within an aqueous solution. • Adding a surfactant in the ratio from about 5 to 20 wt. % of the flavonoid/polyphenol to 95 to 80 wt. % of a surfactant; preferable a nonionic surfactant. • This mixture is thoroughly stirred to form a uniform clear solution. • Adjusting (e.g., acidifying) the alkali metal flavonoid/polyphenol salt with an agent (e.g., an acidic agent such as acetic acid and/or hydrochloric acid) to a pH level required to form a clear and stable microemulsion.\nStable microemulsions with apigenin and the nonionic surfactants, Polysorbate 80 and Cremophor/Kolliphor RH-40, were achieved provided a pH level of 8.0 to 8.5 was maintained. For luteolin, it as determined that a pH of 7 was required to maintain a stable aqueous microemulsion; and for resveratrol, a pH of >4.5 to 7.5."}}}
{"smiles": "O=c1cc(-c2ccc(O)cc2)oc2cc(O)cc(O)c12", "note": "[Apigenin, 4′,5,7,-trihydroxyflavone]", "values": [{"measurement": "stable apigenin concentrate in PS80", "setting": "[1]; 5.0 wt. % apigenin in PS80, heated, cooled to ambient", "result": 50, "unit": "mg/mL"}, {"measurement": "persistence of apigenin levels in saliva post-brushing", "setting": "[2]", "result": "at least 8 hours"}, {"measurement": "apigenin solubilized in PS 80", "setting": "[3]", "result": "more than 5%"}, {"measurement": "apigenin solubilized in RH-40", "setting": "[3]", "result": "more than 5%"}]}
{"smiles": "O.Oc1cc(O)c2c(c1)O[C@H](c1ccc(O)c(O)c1)[C@@H](O)C2", "note": "[Catechin]", "values": [{"measurement": "PS80 Solubility", "setting": "[1]; 20° C., thermal processing, not the maximum solubility levels", "result": 50, "unit": "mg/mL"}, {"measurement": "Water Solubility", "setting": "[4]", "result": "~5", "unit": "mg/mL"}]}
{"smiles": "O=c1cc(-c2ccc(O)c(O)c2)oc2cc(O)cc(O)c12", "note": "[luteolin, 3′,4′,5,7-tetrahydroxyflavone]", "values": [{"measurement": "concentration in transparent solution", "setting": "[5]; Listerine mouthrinse, pH 8", "result": 1500, "unit": "µg/mL"}, {"measurement": "pH level for stable microemulsion", "setting": "[6]", "result": 7}]}
{"smiles": "Oc1ccc(C=Cc2cc(O)cc(O)c2)cc1", "note": "[resveratrol]", "values": [{"measurement": "concentration in transparent solution", "setting": "[5]; Listerine mouth rinse, pH 6.5", "result": 1200, "unit": "µg/mL"}]}
